# Assay results published in article PMC6631223, “Chain-Branched Polyhydroxylated Octahydro-1H-Indoles as Potential Leads against Lysosomal Storage Diseases” (Pharmaceuticals, 2019).
# How the values were obtained:
# Assay type in all cases: biochemical
# α-Glucosidase (rice) = target: T1, α-Glucosidase (rice) (Oryza sativa subsp. japonica, UniProt Q653V7); test: Glycosidase inhibition: α-glucosidase (rice)
# T1 construct: purchased Sigma-Aldrich Co
# Source text: (§1) The enzymes α-glucosidase (from yeast, rice), β-glucosidase (from almonds, bovine liver), α-galactosidase (from coffee beans), β-galactosidase (from bovine liver), α-mannosidase (from jack beans), β-mannosidase (from snails), α-L-fucosidase (from bovine kidney), α-L-rhamnosidase (from Penicillium decumbens), β-glucuronidases (from Escherichia coli), α,α-trehalase (from porcine kidney), amyloglucosidase (from Aspergillus niger), p-nitrophenyl glycosides, and various disaccharides were purchased from Sigma-Aldrich Co. Brush border membranes were prepared from the rat small intestine according to the method of Kessler et al., and were assayed at pH 6.8 for rat intestinal maltase using maltose. For rat intestinal glucosidases and porcine kidney trehalase activities, the reaction mixture (0.2 mL) contained 25 mM substrate and the appropriate amount of enzyme, and the incubations were performed for 10 min at 37 °C. The reaction was stopped by heating at 100 °C for 3 min. After centrifugation (600 g; 10 min), 0.035 mL of the resulting reaction mixture were added to 2.1 mL of the Glucose CII-test Wako (Wako Pure Chemical Ind., Osaka, Japan). The absorbance at 505 nm was measured to determine the amount of the released D-glucose. Other glycosidase activities were determined using an appropriate p-nitrophenyl glycoside as substrate at the optimum pH of each enzyme. The reaction mixture (0.2 mL) contained 2 mM of the substrate and the appropriate amount of enzyme. The reaction was stopped by adding 0.4 mL of 400 mM Na2CO3. The released p-nitrophenol was measured spectrometrically at 400 nm.
# α-Glucosidase (yeast) = target: T2, α-Glucosidase (yeast) (Saccharomyces cerevisiae, UniProt P53341); test: Glycosidase inhibition: α-glucosidase (yeast)
# T2 construct: purchased Sigma-Aldrich Co
# T2 sequence (P53341 whole entry): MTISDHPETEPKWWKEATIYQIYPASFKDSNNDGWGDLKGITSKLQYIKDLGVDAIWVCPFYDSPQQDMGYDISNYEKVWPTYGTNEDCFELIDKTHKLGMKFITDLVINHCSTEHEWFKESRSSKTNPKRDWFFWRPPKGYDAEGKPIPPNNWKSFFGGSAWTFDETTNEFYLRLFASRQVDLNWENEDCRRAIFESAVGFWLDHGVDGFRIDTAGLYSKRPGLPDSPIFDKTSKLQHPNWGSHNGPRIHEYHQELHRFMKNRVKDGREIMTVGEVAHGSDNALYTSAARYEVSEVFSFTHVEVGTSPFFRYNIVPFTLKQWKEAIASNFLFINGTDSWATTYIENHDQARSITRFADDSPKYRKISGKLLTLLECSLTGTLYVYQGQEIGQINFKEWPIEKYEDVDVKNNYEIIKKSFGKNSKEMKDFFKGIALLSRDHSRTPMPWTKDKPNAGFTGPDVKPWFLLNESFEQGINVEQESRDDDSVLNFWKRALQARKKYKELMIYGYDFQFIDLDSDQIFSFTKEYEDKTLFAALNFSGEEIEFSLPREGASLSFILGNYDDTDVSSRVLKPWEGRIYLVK
# Source text: as §1
# Rat intestinal maltase = test: Glycosidase inhibition: rat intestinal maltase; settings: maltose, pH 6.8
# Source text: as §1
# β-Mannosidase (snail) = test: Glycosidase inhibition: β-mannosidase (snail)
# Source text: as §1
# [1] = target: T3, α-L-Fucosidase (bovine kidney) (Bos taurus, UniProt Q2KIM0); test: Glycosidase inhibition: α-L-fucosidase (bovine kidney); settings: α-L-fucosidase, bovine kidney
# T3 construct: purchased Sigma-Aldrich Co; host or cells: bovine kidney
# T3 sequence (Q2KIM0 23-468): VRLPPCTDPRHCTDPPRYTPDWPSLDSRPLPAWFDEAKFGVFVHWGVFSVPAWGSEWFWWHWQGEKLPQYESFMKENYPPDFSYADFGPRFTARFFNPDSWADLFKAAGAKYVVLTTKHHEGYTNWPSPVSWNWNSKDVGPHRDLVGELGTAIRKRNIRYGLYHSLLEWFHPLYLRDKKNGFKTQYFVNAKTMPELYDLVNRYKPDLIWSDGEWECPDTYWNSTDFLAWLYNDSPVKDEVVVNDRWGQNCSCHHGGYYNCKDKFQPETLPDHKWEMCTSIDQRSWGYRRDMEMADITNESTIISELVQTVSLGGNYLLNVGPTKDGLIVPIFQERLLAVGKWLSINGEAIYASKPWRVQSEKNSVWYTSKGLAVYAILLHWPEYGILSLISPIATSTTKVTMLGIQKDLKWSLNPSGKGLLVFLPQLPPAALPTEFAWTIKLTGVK
# Source text: as §1
# [2] = target: T4, α-Galactosidase (coffee beans) (Coffea arabica, UniProt Q42656); test: Glycosidase inhibition: α-galactosidase (coffee beans); settings: α-galactosidase, coffee beans
# T4 construct: purchased Sigma-Aldrich Co
# T4 sequence (Q42656 16-378): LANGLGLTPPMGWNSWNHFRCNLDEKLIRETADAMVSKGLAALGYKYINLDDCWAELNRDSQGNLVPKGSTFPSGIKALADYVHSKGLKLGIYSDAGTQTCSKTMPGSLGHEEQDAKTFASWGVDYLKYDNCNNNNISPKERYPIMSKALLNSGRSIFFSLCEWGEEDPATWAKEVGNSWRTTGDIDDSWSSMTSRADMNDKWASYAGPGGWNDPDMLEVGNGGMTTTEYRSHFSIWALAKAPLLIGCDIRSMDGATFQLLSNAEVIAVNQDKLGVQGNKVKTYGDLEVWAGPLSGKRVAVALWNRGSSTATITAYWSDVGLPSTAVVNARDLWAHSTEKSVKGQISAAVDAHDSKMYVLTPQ
# Source text: as §1
# β-Glucosidase (almond) = test: Glycosidase inhibition: β-glucosidase (almond)
# Source text: as §1
# Amyloglucosidase = target: T5, Amyloglucosidase (Aspergillus niger, UniProt P69328); test: Glycosidase inhibition: amyloglucosidase (Aspergillus niger)
# T5 construct: purchased Sigma-Aldrich Co
# T5 sequence (P69328 25-640): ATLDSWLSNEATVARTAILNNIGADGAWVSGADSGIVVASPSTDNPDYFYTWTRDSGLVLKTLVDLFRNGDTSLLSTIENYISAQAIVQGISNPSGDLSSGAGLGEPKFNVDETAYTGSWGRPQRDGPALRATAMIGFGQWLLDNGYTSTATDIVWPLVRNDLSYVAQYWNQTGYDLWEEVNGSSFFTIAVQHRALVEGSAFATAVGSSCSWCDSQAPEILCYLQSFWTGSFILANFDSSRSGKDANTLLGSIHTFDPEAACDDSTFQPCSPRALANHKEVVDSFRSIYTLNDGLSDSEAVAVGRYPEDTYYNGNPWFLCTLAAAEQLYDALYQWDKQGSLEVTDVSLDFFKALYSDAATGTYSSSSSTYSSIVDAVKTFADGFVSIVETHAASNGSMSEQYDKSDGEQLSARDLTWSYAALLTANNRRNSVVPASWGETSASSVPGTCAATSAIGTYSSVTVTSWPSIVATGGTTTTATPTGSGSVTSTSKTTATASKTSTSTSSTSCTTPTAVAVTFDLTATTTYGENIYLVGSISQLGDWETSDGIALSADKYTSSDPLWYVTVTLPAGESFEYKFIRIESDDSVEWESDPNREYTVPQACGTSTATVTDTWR
# Source text: as §1
# β-Glucronidase (E.coli) = target: T6, β-Glucronidase (E.coli) (Escherichia coli, UniProt P05804); test: Glycosidase inhibition: β-glucuronidase (E. coli)
# T6 construct: purchased Sigma-Aldrich Co
# T6 sequence (P05804 whole entry): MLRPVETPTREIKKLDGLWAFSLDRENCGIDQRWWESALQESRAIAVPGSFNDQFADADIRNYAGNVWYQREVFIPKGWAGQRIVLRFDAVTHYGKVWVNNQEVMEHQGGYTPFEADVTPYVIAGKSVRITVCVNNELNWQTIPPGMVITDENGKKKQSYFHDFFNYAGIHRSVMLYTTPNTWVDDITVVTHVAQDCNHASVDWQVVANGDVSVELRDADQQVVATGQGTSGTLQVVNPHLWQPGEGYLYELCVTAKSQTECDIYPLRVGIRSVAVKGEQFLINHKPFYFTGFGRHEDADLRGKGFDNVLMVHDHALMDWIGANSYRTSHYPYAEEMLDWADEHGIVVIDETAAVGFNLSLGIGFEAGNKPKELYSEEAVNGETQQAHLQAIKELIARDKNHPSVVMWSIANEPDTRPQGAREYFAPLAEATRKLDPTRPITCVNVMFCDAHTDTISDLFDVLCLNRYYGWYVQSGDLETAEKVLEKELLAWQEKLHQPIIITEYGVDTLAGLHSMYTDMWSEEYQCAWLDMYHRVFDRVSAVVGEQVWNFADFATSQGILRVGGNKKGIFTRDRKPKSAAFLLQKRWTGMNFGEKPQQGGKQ
# Source text: as §1
# [3] = target: T7, Lactase (β-Galactosidase) (Rattus norvegicus, UniProt Q02401); test: Glycosidase inhibition: lactase; settings: lactase
# T7 construct: Brush border membranes were prepared from the rat small intestine; from tissue; host or cells: rat small intestine brush border membranes (inferred)
# T7 sequence (Q02401 868-1928): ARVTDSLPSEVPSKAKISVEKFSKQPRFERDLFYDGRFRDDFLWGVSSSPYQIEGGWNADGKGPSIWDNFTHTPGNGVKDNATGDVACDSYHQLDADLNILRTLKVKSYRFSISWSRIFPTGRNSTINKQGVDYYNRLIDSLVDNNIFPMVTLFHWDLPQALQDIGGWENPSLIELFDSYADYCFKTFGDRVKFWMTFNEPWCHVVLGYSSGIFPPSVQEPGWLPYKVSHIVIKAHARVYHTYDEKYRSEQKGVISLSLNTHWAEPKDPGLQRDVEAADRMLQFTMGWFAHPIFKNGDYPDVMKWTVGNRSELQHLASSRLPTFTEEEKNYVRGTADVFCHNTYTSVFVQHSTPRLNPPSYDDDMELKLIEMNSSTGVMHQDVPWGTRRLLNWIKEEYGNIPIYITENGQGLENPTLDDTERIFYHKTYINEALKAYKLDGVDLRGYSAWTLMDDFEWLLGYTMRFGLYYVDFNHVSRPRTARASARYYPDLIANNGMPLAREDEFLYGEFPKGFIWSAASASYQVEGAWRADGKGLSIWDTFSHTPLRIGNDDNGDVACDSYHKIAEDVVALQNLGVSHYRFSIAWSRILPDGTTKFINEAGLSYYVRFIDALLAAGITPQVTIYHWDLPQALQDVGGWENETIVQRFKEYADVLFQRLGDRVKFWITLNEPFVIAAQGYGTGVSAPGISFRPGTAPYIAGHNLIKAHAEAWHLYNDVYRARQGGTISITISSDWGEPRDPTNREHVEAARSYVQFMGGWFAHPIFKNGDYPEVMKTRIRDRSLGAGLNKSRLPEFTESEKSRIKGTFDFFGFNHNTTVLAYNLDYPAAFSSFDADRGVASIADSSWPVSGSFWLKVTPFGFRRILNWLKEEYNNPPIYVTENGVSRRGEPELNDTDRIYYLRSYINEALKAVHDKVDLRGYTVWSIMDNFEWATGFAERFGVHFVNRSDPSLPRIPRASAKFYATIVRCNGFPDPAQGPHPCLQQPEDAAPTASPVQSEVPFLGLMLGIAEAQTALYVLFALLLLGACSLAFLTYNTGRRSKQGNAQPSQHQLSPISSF
# Source text: as §1
# T1 sequence (Q653V7 34-885): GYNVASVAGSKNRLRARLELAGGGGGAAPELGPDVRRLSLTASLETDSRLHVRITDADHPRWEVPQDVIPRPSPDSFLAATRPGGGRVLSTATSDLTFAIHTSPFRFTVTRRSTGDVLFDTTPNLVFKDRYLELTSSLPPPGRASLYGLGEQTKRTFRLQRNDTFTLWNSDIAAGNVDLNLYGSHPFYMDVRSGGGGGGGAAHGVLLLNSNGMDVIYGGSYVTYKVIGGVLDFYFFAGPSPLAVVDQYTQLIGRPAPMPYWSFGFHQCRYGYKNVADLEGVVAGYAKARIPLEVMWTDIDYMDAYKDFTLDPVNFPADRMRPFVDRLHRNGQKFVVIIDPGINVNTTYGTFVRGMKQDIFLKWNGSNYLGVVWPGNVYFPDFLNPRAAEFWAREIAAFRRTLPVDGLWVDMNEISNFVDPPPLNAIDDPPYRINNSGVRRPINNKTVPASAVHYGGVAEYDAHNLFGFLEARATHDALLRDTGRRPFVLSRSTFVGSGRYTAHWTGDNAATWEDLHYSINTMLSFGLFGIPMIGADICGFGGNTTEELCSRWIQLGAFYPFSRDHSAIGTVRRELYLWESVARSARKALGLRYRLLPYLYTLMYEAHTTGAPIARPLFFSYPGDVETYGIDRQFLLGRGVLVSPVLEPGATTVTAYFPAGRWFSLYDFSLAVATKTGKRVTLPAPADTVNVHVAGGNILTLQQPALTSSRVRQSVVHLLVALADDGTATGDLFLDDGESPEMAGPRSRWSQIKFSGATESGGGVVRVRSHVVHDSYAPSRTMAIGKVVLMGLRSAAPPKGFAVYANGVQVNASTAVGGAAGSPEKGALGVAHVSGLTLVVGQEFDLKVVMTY
smiles,measurement,setting,value
"OCCN1C[C@H](O)[C@@H](O)[C@H](O)[C@H]1CO [Miglitol, miglitol, reference compound]",IC50,α-Glucosidase (rice),170 nM
same,IC50,α-Glucosidase (yeast),70 µM
same,IC50,Rat intestinal maltase,> 1 mM
same,IC50,β-Mannosidase (snail),> 1 mM
same,IC50,[1],> 1 mM
same,IC50,[2],> 1 mM
same,IC50,β-Glucosidase (almond),> 1 mM
same,IC50,Amyloglucosidase,> 1 mM
same,IC50,β-Glucronidase (E.coli),> 1 mM
same,IC50,[3],> 1 mM
